Data: publication PMC10835127, “Viruses traverse the human proteome through peptide interfaces that can be biomimetically leveraged for drug discovery” (Proceedings of the National Academy of Sciences of the …, 2024)
Read-outs that look alike come from different tables or passages of the source.

What was measured:
[1] = tested on: F. novicida (strain U112); type: cell-based
[2] = tested on: HIV1 strain NL4-3; type: cell-based; conditions: for HIV1 Norm MEAN: normalized mean of HIV1 replication readout
[3] = tested on: HCV replicon; type: cell-based; conditions: for HCV Norm MEAN: normalized mean of HCV replicon readout
[4] = tested on: EBV; conditions: normalized mean of EBV replication readout
[5] = tested on: influenza A H1N1 virus; conditions: 48 hr post-treatment, A549

Row | Substance | Francisella novicida Norm AUC [1] | HIV1 Norm MEAN ([2]; peptide screen) | HCV Norm MEAN ([3]; peptide screen) | EBV Norm MEAN ([4]; peptide screen) | Neuraminidase activity normalized to vehicle ([5]; 200 µM peptide) | Neuraminidase activity normalized to vehicle ([5]; 0,823 µM peptide) | Neuraminidase activity normalized to vehicle ([5]; 22,2 µM peptide) | Neuraminidase activity normalized to vehicle ([5]; 2,4691 µM peptide) | Neuraminidase activity normalized to vehicle ([5]; 7,4074 µM peptide) | Neuraminidase activity normalized to vehicle ([5]; 66,6667 µM peptide) | activity in HIV1 screen (in words) ([2]; 20 µM peptide, HeLa P4 cells, β-galactosidase) | HIV1 Norm MEAN [2] | HCV Norm MEAN [3] | EBV Norm MEAN [4] | activity in HCV screen (in words) ([3]; 20 µM peptide, Huh7, replicon luciferase) | inhibition of PI incorporation in F. novicida infected BMDMs (in words) [1]
1 | CPEP99: peptide of the viral peptide library; sequence page not shown (SWESHKSGGETRL) | 1.1 | 0.6504 | 0.3379 | 0.7952 | 1,0243 | 0,9063 | 1,004 | 0,994 | 0,9109 | 1,1024 | – | – | – | – | – | –
2 | ARARALARGAGPANSV [CPEP47] | 0.949 | 2.79 | 1.1445 | 1.295 | 1,0179 | 1,0745 | 1,1923 | 1,0399 | 1,1089 | 1,0424 | – | – | – | – | – | –
3 | SAIASGIAVS [CPEP72] | 1.051 | – | – | – | 1,0607 | 1,0538 | 1,1913 | 1,1217 | 1,1419 | 1,1769 | strongly | 7.153 | 1.456 | 0.8997 | – | –
4 | LNSLF [CPEP143] | 1.175 | – | – | – | 0,8484 | 0,6928 | 0,8423 | 0,7636 | 0,8039 | 0,8807 | – | 0.7905 | 0.2751 | 1.147 | – | –
5 | WGCSGKLICTTTVPW [CPEP84] | 1.224 | 0.7328 | 0.9118 | 0.6808 | 0,0819 | 0,9093 | 0,9299 | 0,9765 | 0,9455 | 0,3888 | – | – | – | – | – | –
6 | CPEP83: peptide of the viral peptide library; sequence page not shown (LHGLSAFSLHSYS) | 1.204 | – | – | – | 0,249 | 0,6779 | 0,9424 | 0,9223 | 0,934 | 0,7894 | – | 3.012 | 0.4141 | 0.5883 | – | –
7 | LRKRRKRL [CPEP145] | 1.33 | – | – | – | 0,7911 | 0,8361 | 0,839 | 0,7253 | 0,7634 | 0,9146 | – | 1.45 | 0.1172 | 2.86 | inhibition of RNA | –
8 | RQARRNRRR [CPEP110] | 1.637 | – | – | – | 0,8723 | 1,0272 | 0,8952 | 0,9228 | 0,9411 | 0,8493 | – | 0.3127 | 0.05205 | 2.204 | – | –
9 | IQIGNHNAM [CPEP67] | 0.7313 | – | – | – | 0,0404 | 0,9632 | 0,5849 | 0,8279 | 0,768 | 0,4017 | – | 4.672 | 0.7713 | 1.399 | – | –
10 | EVLADNLPPP [CPEP90] | 1.209 | – | – | – | 0,7518 | 0,9901 | 0,7822 | 0,9469 | 0,8328 | 0,7316 | – | 0.8397 | 1.163 | 1.561 | – | –
11 | RRPSRPFRK [CPEP88] | 1.028 | – | – | – | 0,55 | 0,9984 | 0,7716 | 0,8217 | 0,8463 | 0,6969 | – | 0.3045 | 0.6746 | 0.9654 | – | –
12 | RTYGTWEDLFCDESL [CPEP128] | 0.8745 | 0.383 | 0.6752 | 1.318 | 0,6933 | 0,9138 | 1,0305 | 1,0131 | 0,9772 | 1,0247 | – | – | – | – | – | –
13 | KLVTELAENS [CPEP129] | 0.9413 | – | – | – | 0,8014 | 1,1002 | 0,8882 | 1,0838 | 0,9983 | 0,7782 | – | 0.8117 | 0.8005 | 1.255 | – | –
14 | PKKKRKV [CPEP56] | 1.16 | – | – | – | 0,9628 | 1,0162 | 0,9231 | 0,8416 | 0,8936 | 0,9527 | – | 0.9705 | 0.1426 | 0.9787 | – | –
15 | PPPPY [CPEP132] | 0.9275 | – | – | – | 0,8244 | 0,8549 | 0,9192 | 0,87 | 0,8306 | 1,0078 | – | 1.621 | 0.2215 | 1.203 | – | –
16 | RKSASMS [CPEP82] | 1.194 | – | – | – | 0,8479 | 0,801 | 0,7544 | 0,6968 | 0,5924 | 0,9164 | – | 1.975 | 0.267 | 1.372 | – | –
17 | TIESEV [CPEP59] | 0.4462 | – | – | – | 1,1965 | 1,1044 | 1,0974 | 1,0801 | 1,0995 | 1,0953 | – | 0.5804 | 0.1611 | 1.967 | – | one of the most potent virus-derived peptides to inhibit PI incorporation
18 | YLTDM [CPEP154] | 0.5909 | – | – | – | 1,0928 | 1,0316 | 1,0253 | 0,9855 | 1,0107 | 1,0399 | – | 1.461 | 0.1792 | 1.807 | – | –
19 | NKVGSLQYLALAALI [CPEP60] | 1.045 | 4.7165 | 1.268 | 0.706 | 0,117 | 0,8991 | 0,7636 | 1,0157 | 0,7801 | 0,247 | – | – | – | – | – | –
20 | DLYCYEQLNDSSEEEDE [CPEP125] | 1.158 | 1.6 | 0.9031 | 1.019 | 0,7813 | 1,0772 | 1,1403 | 0,9577 | 1,1015 | 0,8979 | – | – | – | – | – | –
